Series [1] deals with T1, BsAcuC (2c) (Bacillus subtilis, UniProt P39067).
T1 construct: made in house; host or cells: E. coli BL21 (DE3)
T1 sequence (P39067 1-387): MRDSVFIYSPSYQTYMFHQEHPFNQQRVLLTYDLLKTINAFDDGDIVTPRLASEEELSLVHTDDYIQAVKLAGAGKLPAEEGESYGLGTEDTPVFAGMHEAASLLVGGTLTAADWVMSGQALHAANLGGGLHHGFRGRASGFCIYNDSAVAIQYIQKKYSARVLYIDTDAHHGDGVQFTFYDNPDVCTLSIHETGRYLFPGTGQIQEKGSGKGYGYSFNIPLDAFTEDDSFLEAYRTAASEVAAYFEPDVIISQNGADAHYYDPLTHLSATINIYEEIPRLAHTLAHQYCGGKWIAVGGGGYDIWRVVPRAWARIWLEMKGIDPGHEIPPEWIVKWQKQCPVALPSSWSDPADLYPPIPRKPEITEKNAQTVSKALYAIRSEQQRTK
Briefly: Dose-response inhibition assay. In kind it is biochemical. As to conditions: dose-response inhibition assay. The source says: Data was transformed to relative enzyme activity (%) compared to control wells without inhibitor, and fitted to sigmoidal functions with variable slope (Eqs. 3, 4 parameters, h: Hill slope) to afford IC50 values. Assuming fast-on/fast-off competitive inhibition, the Cheng–Prusoff equation (Eq. 4) was employed to transform IC50 data into inhibitory constants (Ki), with KM values as determined previously.3 Res.activity=Res.activitybottom+Res.activitytop−Res.activitybottom/1+10^(logIC50−logI)h 4 Ki=IC50/1+[S]/KM

The target of a further series is KpHdaH (1b) (Klebsiella pneumoniae, UniProt A0A377Z5F6). Briefly: biochemical. The settings on record: for IC50: 15 nM enzyme, 60 min, 37 °C.
Another series addresses LcApaH (3) (Legionella cherrii, UniProt A0A0W0SGS1). Briefly: biochemical. As to conditions: for IC50: 0.5 nM enzyme, 30 min, 37 °C.
A further series has as its target LpApaH (3) (Legionella pneumophila, UniProt A0A2S6EWV0). The experiment in a line: biochemical.
Another series addresses RwDmhA (1b) (Rhizorhabdus wittichii, UniProt A0A067XIQ6). Briefly: biochemical. As to conditions: for IC50: 30 nM enzyme, 60 min, 37 °C.
In series [2] the target is T1, BsAcuC (2c). The experiment in a line: Inhibitor screening assay (10 µM or 1 µM). In kind it is biochemical. The source says: Data was transformed to relative enzyme activity (%) compared to control wells without inhibitors.
In series [3] the target is PrpH (propanil hydrolase) of Rhizorhabdus sp. (Rhizorhabdus sp.). The experiment in a line: crystal structure.
The target of series [4] is PsApaH_(1-342) (4) (Pseudomonas sp.). Briefly: crystal structure.
In series [5] the target is Pseudomonas sp. acetylpolyamine amidohydrolase ApaH (Pseudomonas sp.). The experiment in a line: SEC. For orientation: SEC sorts molecules by how far they enter the pores of the column.
In series [6] the target is Δ20-37 KpHdaH (Klebsiella pneumoniae).
The series “crystal structure” concerns the molecule itself. The experiment in a line: crystal structure.
In series [7] the target is DmhA (dimethoate hydrolase) of Rhizorhabdus wittichii (Rhizorhabdus wittichii). Briefly: enzyme kinetics with substrate in.
For series [8], the target named is Pseudomonas sp. acetylpolyamine amidohydrolase ApaH (Pseudomonas sp.). Briefly: enzyme kinetics with substrate in.
Series [9] addresses T2, Legionella cherrii acetyl-polyamine aminohydrolase (Legionella cherrii).
T2 sequence: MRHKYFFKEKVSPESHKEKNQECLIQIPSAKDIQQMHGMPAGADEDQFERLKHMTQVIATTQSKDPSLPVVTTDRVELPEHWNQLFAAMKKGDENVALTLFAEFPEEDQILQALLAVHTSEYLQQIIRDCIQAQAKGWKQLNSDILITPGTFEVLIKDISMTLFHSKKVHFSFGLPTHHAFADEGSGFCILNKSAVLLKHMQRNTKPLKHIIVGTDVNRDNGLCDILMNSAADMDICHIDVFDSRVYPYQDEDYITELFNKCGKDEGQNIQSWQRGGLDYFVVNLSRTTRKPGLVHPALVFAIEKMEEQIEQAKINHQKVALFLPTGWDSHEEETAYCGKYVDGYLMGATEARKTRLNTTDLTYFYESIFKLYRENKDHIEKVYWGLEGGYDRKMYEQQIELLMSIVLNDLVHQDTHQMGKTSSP
Briefly: enzyme kinetics with substrate inhibition (Fluor-de-Lys assay).

In series [10] the target is T3, Legionella pneumophila acetyl-polyamine aminohydrolase (Legionella pneumophila).
T3 sequence: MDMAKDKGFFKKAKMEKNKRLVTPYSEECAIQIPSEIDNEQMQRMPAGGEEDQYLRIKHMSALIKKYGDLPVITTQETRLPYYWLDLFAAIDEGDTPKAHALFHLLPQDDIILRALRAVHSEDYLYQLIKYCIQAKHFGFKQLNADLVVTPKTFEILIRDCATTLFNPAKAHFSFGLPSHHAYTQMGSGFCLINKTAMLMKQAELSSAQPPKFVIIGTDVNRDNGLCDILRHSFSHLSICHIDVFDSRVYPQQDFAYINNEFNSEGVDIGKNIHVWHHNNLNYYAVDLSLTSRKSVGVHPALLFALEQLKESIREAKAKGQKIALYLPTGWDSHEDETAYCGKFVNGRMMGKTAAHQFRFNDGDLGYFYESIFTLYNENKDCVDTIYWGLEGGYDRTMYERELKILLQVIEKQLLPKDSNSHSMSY
The series is described as above.

The mark [11] stands for this setting: Log[IC50(M)], decadic log of IC50, 60 µM QPKKac.

Broadly, the IC50 is the concentration that inhibits the measured activity by half. Higher therefore signals lower potency. Broadly, the remaining activity is the signal under treatment as a percentage of the control signal. A high value points to much activity left. In the case of `O=C(CCCCCCC(=O)Nc1ccccc1)NO` [SAHA, suberoylanilide hydroxamic acid], the “inhibition of BsAcuC (2c), in words” value on BsAcuC (2c) [1] is “not detecting any inhibition”. The IC50 is 9.71e-08 M on KpHdaH (1b) (IC50, 60 µM QPKKac); 9.77e-08 M on KpHdaH (1b) (setting [11]); 8.09e-07 M against LcApaH (3) (IC50, 40 µM LGKac); 8.13e-07 M against LcApaH (3) (Log[IC50(M)], decadic log of IC50, 40 µM LGKac); 6.69e-07 M on LpApaH (3) (IC50); 6.61e-07 M against LpApaH (3) (Log[IC50(M)]). Further, the IC50 against RwDmhA (1b) (IC50, 60 µM QPKKac) is 1.01e-07 M; against RwDmhA (1b) (setting [11]) it was 1e-07 M. Besides, the Ki was 22.4 nM at KpHdaH (1b) (Ki, calculated using the Cheng–Prusoff equation, 60 µM QPKKac); 307 nM at LcApaH (3) (Ki, calculated using the Cheng–Prusoff equation, 40 µM LGKac); 230 nM on LpApaH (3) (Ki); 41.6 nM on RwDmhA (1b). Moreover, the remaining activity at 1 µM is 84.7% on BsAcuC (2c) [2] (1 µM inhibitor, mean of n = 2, 40 µM LGKac); 83.2% on BsAcuC (2c) [2] (1 µM inhibitor, single measurements (two columns), 40 µM LGKac, 60 min, 37 °C); 83.2% on BsAcuC (2c) [2] (BsAcuC (2c), inhibitor 1 µM, individual replicates); 84.7% at BsAcuC (2c) [2] (BsAcuC (2c), inhibitor 1 µM, mean). The remaining activity at 10 µM on BsAcuC (2c) [2] (10 µM inhibitor, mean of n = 2, 40 µM LGKac) came out at 60.6%; on BsAcuC (2c) [2] (10 µM inhibitor, single measurements (two columns), 40 µM LGKac, 60 min, 37 °C), 56.2%; on BsAcuC (2c) [2] (BsAcuC (2c), inhibitor 10 µM, individual replicates), 56.2%; at BsAcuC (2c) [2] (BsAcuC (2c), inhibitor 10 µM, mean) it was 60.6%. Besides, the “inhibition of BsAcuC (2c) in the initial screen, in words” value against BsAcuC (2c) [2] (pre-screening at 10 µM or 1 µM inhibitor) is reported as “only weakly inhibited”.

The term stoichiometry N denotes the number of molecules, sites or subunits per partner or assembly. In series [3], “PrpH (propanil hydrolase) of Rhizorhabdus sp. (enzyme)” returned a stoichiometry N of 4.

Regarding PsApaH_(1-342) (4) (domain or fragment), the stoichiometry N in series [4] came out at 2.

“Pseudomonas sp. acetylpolyamine amidohydrolase ApaH (enzyme)” returned a stoichiometry N in series [5] of 2.

“Δ20-37 KpHdaH (from UniProt A0A377Z5F6 1-371) (enzyme)” came in with a stoichiometry N in series [6] of 2.

B1: DmhA (dimethoate hydrolase) of Rhizorhabdus wittichii (enzyme)
chain: MARTGFYTDERTFWHATGMQALFLPVGDWVQPPNGTAGADTPDSKRRLLNLAHASGLIRKLTLPEAIPATVEDVCRVHPRDYIDRFKATSDAGGGDLGHLAPFSKGGYEIAMLSCGLAIAAVDDVLSGKVDNAYALCRPAGHHCLADTPMGFCLLANIPIAIEAAKARHGISRVAVVDWDVHHGNGTQSIFYDRADVLTISIHQDRCFPPGYSGAEDRGEGAGLGYNLNVPLPAGAGHDAYVQAFDDIVVPALDDFKPDLIIVASGLDANSVDPLARMLLHSESYRLLTQKMLDAAARLCGGKLVVVHEGGYAEAYVPFCGHALLEALSGERTAVVDPVLEMAEAWQPGPEAAAFHRQWIDRLVADLGK
notes: also called RwDmhA (1b); RwDmhA
Turning to B1, in the series “crystal structure”, the “stoichiometry N” value stood at 4.

B2: Klebsiella pneumoniae HdaH (enzyme, UniProt A0A377Z5F6 1-371, looked up)
chain: MKRKTGFFFDERCFWHSTGLHAVTLPVGGWVQPPAGGGHAESPETKRRMKNLMDVSGLTPQLALRSAAPASLEDLRRIHPDSYLERFKAISDNGGGMLGKEAPLGPGSYEIACLSAGLACAAVEAVLKGELDNAYSLSRPPGHHCLPDQSMGFCFLANIPIAVERAKAQLGLGKVAIIDWDVHHGNGTQHIYLQRDDVLTISLHQDGCFPPGYAGEDDRGVGAGEGYNINIPLLAGAGDDSWRYALETIVIPALARFEPELIIIACGYDANAMDPLARMQLHSDSFRAMTEQVQQAADRLCGGKLVMVHEGGYAESYVPFCGLAVMEALSGIRTEVQDPLLEFIQQQQPRATFAQFQRQAIDRLAQQFGLQ
notes: also called KpHdaH (1b); KpHdaH
As to B2, in the series “crystal structure”, the “stoichiometry N” value stood at 4.

As to QPKK [p53-peptide QPKKac], the Ki in series [7] was 154000 nM; in series [8], 122000 nM; in [9], 13000 nM; in [10], 44000 nM.
